According to patent publication US8119696B2, “Treatment of superficial and cutaneous mycoses with a pure form of 1,7-bis(4-hydroxy-3-methoxyphenyl)-3,5-heptanedione” (priority 2007, dated 2012):
Entries after “also recorded” stand apart in the source; their conditions may differ.

Tests used:
Assay type in all cases: cell-based
[1] = system: Epidermophyton floccosum; experiment: Anti-dermatophytic activity, agar dilution method (Sabouraud's dextrose agar); details: for Growth of test organism (Negative/Growth): DMSO solvent, SDA, trials EF1-EF3; for Inhibition of growth at all tested concentrations: concentrations 0.15%, 0.31%, 0.625%, 1.25%, 2.50% and 5.0%
Protocol: (§1) The anti-dermatophyte efficacy testing for greater than 99% pure form of 1,7-Bis(4-hydroxy-3-methoxyphenyl)-3,5-heptanedione (coded TP) in comparison to the corresponding 95% pure form (coded SW) was done by the agar dilution method. The medium used was Sabouraud's dextrose agar (SDA). Doubling concentration ranges from about 0.15% to about 5% of TP and […] was prepared in 5 ml Dimethylsulfoxide and added to 95 ml of SDA to form a total volume of 100 ml of the medium. The test organisms Trichophyton rubrum, Microsporum gypseum and Epidermophyton floccosum encoded as TR, MG and EF were inoculated in biosafety level 2 standards into the media comprising test compounds in the specified concentration ranges. Triplicate experiments were set up for each of the three fungi for each concentration of the test compounds to ensure reproducibility of results. DMSO and SDA controls were also included in triplicates for the test.
(§2) The test results are represented as Table I (FIG. 1, FIG. 2 and FIG. 3). The table may be read as follows. For example, TPTR1 represents growth of Trichophyton rubrum in greater than 99% pure form of 1,7-Bis (4-hydroxy-3-methoxyphenyl)-3,5-heptanedione in the first test. Similarly duplicate and triplicate testing are represented as TPTR2 and TPTR3.

[2] = system: Microsporum gypseum; experiment: as above; details: for Growth of test organism (Negative/Growth): DMSO solvent, SDA, trials MG1-MG3; for Inhibition of growth at all tested concentrations: concentrations 0.15%, 0.31%, 0.625%, 1.25%, 2.50% and 5.0%
Protocol: as §1, §2

[3] = system: Trichophyton rubrum; experiment: as above; details: for Growth of test organism (Negative/Growth): DMSO solvent, SDA, trials TR1-TR3; for Inhibition of growth at all tested concentrations: concentrations 0.15%, 0.31%, 0.625%, 1.25%, 2.50% and 5.0%
Protocol: as §1, §2

[4] = system: Malassezia furfur; experiment: Antifungal efficacy, agar dilution method (Sabourauds Dextrose Agar with an overlay of coconut oil); details: for Growth of test organism (Negative/Growth): DMSO solvent, trials MF1-MF3
[5] = system: Candida albicans NCIM 3471 (yeast); experiment: Activity against Candida species: colony counts over 28 days
[6] = system: Fusarium oxysporum (mycotoxin producing fungus); experiment: Activity against Fusarium oxysporum: counts over 28 days; details: inoculation level 1 × 10^7 CFU/g
[7] = final concentration 0.15%, listed as 95% pure form of 1,7-Bis(4-hydroxy-3-methoxyphenyl)-3,5-heptanedione
[8] = test interval 7 days, listed as 1,7-bis(4-hydroxy-3-methoxyphenyl)-3,5-heptanedione (about 95% purity)
[9] = test interval 14 days, listed as 1,7-bis(4-hydroxy-3-methoxyphenyl)-3,5-heptanedione (about 95% purity)
[10] = test interval 21 days, listed as 1,7-bis(4-hydroxy-3-methoxyphenyl)-3,5-heptanedione (about 95% purity)
[11] = test interval 28 days, listed as 1,7-bis(4-hydroxy-3-methoxyphenyl)-3,5-heptanedione (about 95% purity)
[12] = listed as greater than 99% pure form of 1,7-Bis(4-hydroxy-3-methoxyphenyl)-3,5-heptanedion
[13] = test interval 7 days, listed as 1,7-bis(4-hydroxy-3-methoxyphenyl)-3,5-heptanedione (>99% purity)
[14] = test interval 14 days, listed as 1,7-bis(4-hydroxy-3-methoxyphenyl)-3,5-heptanedione (>99% purity)
[15] = test interval 21 days, listed as 1,7-bis(4-hydroxy-3-methoxyphenyl)-3,5-heptanedione (>99% purity)
[16] = test interval 28 days, listed as 1,7-bis(4-hydroxy-3-methoxyphenyl)-3,5-heptanedione (>99% purity)
[17] = test interval 28 days, listed as greater than 99% pure form of 1,7-bis(4-hydroxy-3-methoxyphenyl)-3,5-heptanedion

Structure (SMILES): COc1cc(CCC(=O)CC(=O)CCc2ccc(O)c(OC)c2)ccc1O [SW, 1,7-Bis(4-hydroxy-3-methoxyphenyl)-3,5-heptanedione]
- Growth of test organism (Negative/Growth) ([1]; final concentration 0.15%): able to grow; also recorded: Growth
- Growth of test organism (Negative/Growth) [1, 7]: grow
- Growth of test organism (Negative/Growth) ([1]; final concentration 0.31%): able to grow; also recorded: Growth
- Growth of test organism (Negative/Growth) ([1]; final concentration 0.31%, listed as 95% pure form of 1,7-Bis(4-hydroxy-3-methoxyphenyl)-3,5-heptanedione): tolerant
- Growth of test organism (Negative/Growth) ([1]; final concentration 0.625%): Negative
- Growth of test organism (Negative/Growth) ([1]; final concentration 1.25%): Negative
- Growth of test organism (Negative/Growth) ([1]; final concentration 2.5%): Negative
- Growth of test organism (Negative/Growth) ([1]; final concentration 5%): Negative
- Growth of test organism (Negative/Growth) ([2]; final concentration 0.15%): tolerated by the fungi; also recorded: Growth
- Growth of test organism (Negative/Growth) [2, 7]: grow
- Growth of test organism (Negative/Growth) ([2]; final concentration 0.31%): Negative
- Growth of test organism (Negative/Growth) ([2]; final concentration 0.625%): Negative
- Growth of test organism (Negative/Growth) ([2]; final concentration 1.25%): Negative
- Growth of test organism (Negative/Growth) ([2]; final concentration 2.5%): Negative
- Growth of test organism (Negative/Growth) ([2]; final concentration 5%): Negative
- Growth of test organism (Negative/Growth) ([3]; final concentration 0.15%): tolerated by the fungi; also recorded: Growth
- Growth of test organism (Negative/Growth) [3, 7]: grow
- Growth of test organism (Negative/Growth) ([3]; final concentration 0.31%): Negative
- Growth of test organism (Negative/Growth) ([3]; final concentration 0.625%): Negative
- Growth of test organism (Negative/Growth) ([3]; final concentration 1.25%): Negative
- Growth of test organism (Negative/Growth) ([3]; final concentration 2.5%): Negative
- Growth of test organism (Negative/Growth) ([3]; final concentration 5%): Negative
- Concentration that inhibits the growth of the fungus ([4]; agar dilution): ≥ 1.25%
- Growth of test organism (Negative/Growth) ([4]; final concentration 0.15%): Growth
- Growth of test organism (Negative/Growth) ([4]; final concentration 0.31%): Growth
- Growth of test organism (Negative/Growth) ([4]; final concentration 0.625%): Growth
- Growth of test organism (Negative/Growth) ([4]; final concentration 1.25%): Negative; also recorded: Growth
- Growth of test organism (Negative/Growth) ([4]; final concentration 2.5%): Negative
- Growth of test organism (Negative/Growth) ([4]; final concentration 5%): Negative
- Concentration of organism ([5]; test interval 0 days, listed as 1,7-bis(4-hydroxy-3-methoxyphenyl)-3,5-heptanedione (about 95% purity)): 25 × 10^5 cfu/ml
- Concentration of organism [5, 8]: 19.7 × 10^5 cfu/ml
- Log Reduction [5, 8]: 0.2
- Percent Reduction [5, 8]: 21.2%
- Concentration of organism [5, 9]: 16 × 10^4 cfu/ml
- Log Reduction [5, 9]: 2.3
- Percent Reduction [5, 9]: 99.3%
- Concentration of organism [5, 10]: 53 × 10^5 cfu/ml
- Log Reduction [5, 10]: 0.7
- Percent Reduction [5, 10]: 78.6%
- Concentration of organism [5, 11]: 31.5 × 10^5 cfu/ml
- Log Reduction [5, 11]: 0.8
- Percent Reduction [5, 11]: 87.4%

Structure (SMILES): COc1cc(CCC(=O)CC(=O)CCc2ccc(O)c(OC)c2)ccc1O [TP, 1,7-Bis(4-hydroxy-3-methoxyphenyl)-3,5-heptanedione]
- Inhibition of growth at all tested concentrations [1]: inhibits the growth
- Inhibition of growth at all tested concentrations [1, 12]: completely inhibiting the growth
- Growth of test organism (Negative/Growth) ([1]; final concentration 0.15%): Negative
- Growth of test organism (Negative/Growth) ([1]; final concentration 0.31%): Negative
- Growth of test organism (Negative/Growth) ([1]; final concentration 0.625%): Negative
- Growth of test organism (Negative/Growth) ([1]; final concentration 1.25%): Negative
- Growth of test organism (Negative/Growth) ([1]; final concentration 2.5%): Negative
- Growth of test organism (Negative/Growth) ([1]; final concentration 5%): Negative
- Inhibition of growth at all tested concentrations [2]: inhibits the growth
- Inhibition of growth at all tested concentrations [2, 12]: completely inhibiting the growth
- Growth of test organism (Negative/Growth) ([2]; final concentration 0.15%): Negative
- Growth of test organism (Negative/Growth) ([2]; final concentration 0.31%): Negative
- Growth of test organism (Negative/Growth) ([2]; final concentration 0.625%): Negative
- Growth of test organism (Negative/Growth) ([2]; final concentration 1.25%): Negative
- Growth of test organism (Negative/Growth) ([2]; final concentration 2.5%): Negative
- Growth of test organism (Negative/Growth) ([2]; final concentration 5%): Negative
- Inhibition of growth at all tested concentrations [3]: inhibits the growth
- Inhibition of growth at all tested concentrations [3, 12]: completely inhibiting the growth
- Growth of test organism (Negative/Growth) ([3]; final concentration 0.15%): Negative
- Growth of test organism (Negative/Growth) ([3]; final concentration 0.31%): Negative
- Growth of test organism (Negative/Growth) ([3]; final concentration 0.625%): Negative
- Growth of test organism (Negative/Growth) ([3]; final concentration 1.25%): Negative
- Growth of test organism (Negative/Growth) ([3]; final concentration 2.5%): Negative
- Growth of test organism (Negative/Growth) ([3]; final concentration 5%): Negative
- Activity against Malassezia furfur at all tested concentration, in contrast to the 95% pure form ([4]; 0.15% to 5%): enhanced activity
- Growth of test organism (Negative/Growth) ([4]; final concentration 0.15%): Negative
- Growth of test organism (Negative/Growth) ([4]; final concentration 0.31%): Negative
- Growth of test organism (Negative/Growth) ([4]; final concentration 0.625%): Negative
- Growth of test organism (Negative/Growth) ([4]; final concentration 1.25%): Negative
- Growth of test organism (Negative/Growth) ([4]; final concentration 2.5%): Negative
- Growth of test organism (Negative/Growth) ([4]; final concentration 5%): Negative
- Concentration of organism ([5]; test interval 0 days, listed as 1,7-bis(4-hydroxy-3-methoxyphenyl)-3,5-heptanedione (>99% purity)): 14.6 × 10^5 cfu/ml
- Concentration of organism [5, 13]: 72 × 10^5 cfu/ml
- Log Reduction [5, 13]: 0.5
- Percent Reduction [5, 13]: 50.6%
- Concentration of organism [5, 14]: 20 × 10^8 cfu/ml
- Log Reduction [5, 14]: 2.8
- Percent Reduction [5, 14]: 99.8%
- Concentration of organism [5, 15]: 75 × 10^2 cfu/ml
- Log Reduction [5, 15]: 3.4
- Percent Reduction [5, 15]: 99.94%
- Concentration of organism [5, 16]: <130 cfu/ml
- Log Reduction [5, 16]: 5.3
- Percent Reduction [5, 16]: 99.99%
- Concentration of organism [5, 17]: less than 100 cfu/ml
- Percent Reduction [5, 17]: 99.99%
- Day 0 count [6]: 1 × 10^7 CFU/g
- Day 7 count [6]: <10 CFU/g
- Day 14 count [6]: <10 CFU/g
- Day 28 Count [6]: <10 CFU/g
